# From ChEMBL document CHEMBL2440076, “New triarylpyrazoles as broad-spectrum anticancer agents: design, synthesis, and biological evaluation” (Eur J Med Chem, 2013)
# Columns and labels:
# [1] = tested on: RPMI-8226; assay: Growth inhibition of human RPMI8226 cells after 48 hrs by sulforhodamine B assay; assay type: functional, cell-based; settings: RPMI-8226, 48 h
# [2] = tested on: NCI-H322M; assay: Growth inhibition of human NCI-H322M cells assessed as cell growth at 10 uM after 48 hrs by sulforhodamine B assay; assay type: functional; settings: read-out: Activity
# [3] = tested on: MDA-MB-468; assay: Growth inhibition of human MDA-MB-468 cells after 48 hrs by sulforhodamine B assay; assay type: functional, cell-based; settings: MDA-MB-468, 48 h
# [4] = tested on: UO-31; assay: Growth inhibition of human UO31 cells after 48 hrs by sulforhodamine B assay; assay type: functional; settings: UO-31, 48 h
# [5] = tested on: IGROV-1; assay: Growth inhibition of human IGROV1 cells after 48 hrs by sulforhodamine B assay; assay type: functional; settings: IGROV-1, 48 h
# [6] = tested on: MDA-MB-435; assay: Growth inhibition of human MDA-MB-435 cells assessed as cell growth at 10 uM after 48 hrs by sulforhodamine B assay; assay type: functional; settings: MDA-MB-435, 48 h, read-out: Activity
# [7] = tested on: K562; assay: Growth inhibition of human K562 cells after 48 hrs by sulforhodamine B assay; assay type: functional; settings: K562, 48 h
# [8] = tested on: ACHN; assay: Growth inhibition of human ACHN cells assessed as cell growth at 10 uM after 48 hrs by sulforhodamine B assay; assay type: functional; settings: read-out: Activity
# [9] = tested on: M14; assay: Growth inhibition of human M14 cells assessed as cell growth at 10 uM after 48 hrs by sulforhodamine B assay; assay type: functional; settings: M14, 48 h, read-out: Activity
# [10] = tested on: SK-MEL-28; assay: Growth inhibition of human SK-MEL-28 cells after 48 hrs by sulforhodamine B assay; assay type: functional; settings: SK-MEL-28, 48 h
# [11] = tested on: COLO 205; assay: Growth inhibition of human COLO205 cells after 48 hrs by sulforhodamine B assay; assay type: functional; settings: COLO 205, 48 h
# [12] = tested on: UO-31; assay: Growth inhibition of human UO31 cells assessed as cell growth at 10 uM after 48 hrs by sulforhodamine B assay; assay type: functional; settings: UO-31, 48 h, read-out: Activity
# [13] = tested on: LOX IMVI; assay: Growth inhibition of human LOXIMVI cells after 48 hrs by sulforhodamine B assay; assay type: functional
# [14] = tested on: SK-OV-3; assay: Growth inhibition of human SKOV3 cells assessed as cell growth at 10 uM after 48 hrs by sulforhodamine B assay; assay type: functional; settings: SK-OV-3, 48 h, read-out: Activity
# [15] = tested on: T47D; assay: Growth inhibition of human T47D cells after 48 hrs by sulforhodamine B assay; assay type: functional
# [16] = tested on: MDA-MB-435; assay: Growth inhibition of human MDA-MB-435 cells after 48 hrs by sulforhodamine B assay; assay type: functional, cell-based; settings: MDA-MB-435, 48 h
# [17] = tested on: MDA-MB-231; assay: Growth inhibition of human MDA-MB-231 cells assessed as cell growth at 10 uM after 48 hrs by sulforhodamine B assay; assay type: functional; settings: MDA-MB-231, 48 h, read-out: Activity
# [18] = tested on: MDA-MB-231; assay: Growth inhibition of human MDA-MB-231 cells after 48 hrs by sulforhodamine B assay; assay type: functional; settings: MDA-MB-231, 48 h
# [19] = tested on: OVCAR-8; assay: Growth inhibition of human OVCAR8 cells assessed as cell growth at 10 uM after 48 hrs by sulforhodamine B assay; assay type: functional; settings: OVCAR-8, 48 h, read-out: Activity
# [20] = tested on: 786-0; assay: Growth inhibition of human 786-0 cells after 48 hrs by sulforhodamine B assay; assay type: functional; settings: 786-0, 48 h
# [21] = tested on: DU-145; assay: Growth inhibition of human DU145 cells assessed as cell growth at 10 uM after 48 hrs by sulforhodamine B assay; assay type: functional; settings: DU-145, 48 h, read-out: Activity
# [22] = tested on: HOP-62; assay: Growth inhibition of human HOP62 cells after 48 hrs by sulforhodamine B assay; assay type: functional; settings: HOP-62, 48 h
# [23] = tested on: UACC-62; assay: Growth inhibition of human UACC62 cells assessed as cell growth at 10 uM after 48 hrs by sulforhodamine B assay; assay type: functional; settings: UACC-62, 48 h, read-out: Activity
# [24] = tested on: SNB-19; assay: Growth inhibition of human SNB19 cells assessed as cell growth at 10 uM after 48 hrs by sulforhodamine B assay; assay type: functional; settings: SNB-19, 48 h, read-out: Activity
# [25] = tested on: OVCAR-4; assay: Growth inhibition of human OVCAR4 cells assessed as cell growth at 10 uM after 48 hrs by sulforhodamine B assay; assay type: functional; settings: OVCAR-4, 48 h, read-out: Activity
# [26] = Growth inhibition of human Hs 578T cells assessed as cell growth at 10 uM after 48 hrs by sulforhodamine B assay; assay type: functional; settings: read-out: Activity
# [27] = tested on: K562; assay: Growth inhibition of human K562 cells assessed as cell growth at 10 uM after 48 hrs by sulforhodamine B assay; assay type: functional; settings: K562, 48 h, read-out: Activity
# [28] = tested on: SF-295; assay: Growth inhibition of human SF295 cells after 48 hrs by sulforhodamine B assay; assay type: functional, cell-based; settings: SF-295, 48 h
# [29] = tested on: T47D; assay: Growth inhibition of human T47D cells assessed as cell growth at 10 uM after 48 hrs by sulforhodamine B assay; assay type: functional; settings: read-out: Activity
# [30] = tested on: 786-0; assay: Growth inhibition of human 786-0 cells assessed as cell growth at 10 uM after 48 hrs by sulforhodamine B assay; assay type: functional; settings: 786-0, 48 h, read-out: Activity
# [31] = Growth inhibition of human HCC2998 cells after 48 hrs by sulforhodamine B assay; assay type: functional; settings: HCC 2998, 48 h
# [32] = tested on: HL-60(TB); assay: Growth inhibition of human HL-60(TB) cells after 48 hrs by sulforhodamine B assay; assay type: functional; settings: HL-60, 48 h
# [33] = tested on: A498; assay: Growth inhibition of human A498 cells assessed as cell growth at 10 uM after 48 hrs by sulforhodamine B assay; assay type: functional; settings: A498, 48 h, read-out: Activity
# [34] = tested on: HCT-15; assay: Growth inhibition of human HCT15 cells after 48 hrs by sulforhodamine B assay; assay type: functional; settings: HCT-15, 48 h
# [35] = read-out: LC50 (the source's name)
smiles,measurement,setting,value
COc1cc(-c2nn(-c3cccc(NC(=O)c4ccccc4)c3)cc2-c2ccncc2)ccc1Cl,GI50,[1],850 nM
same,IC50,[1],850 nM
same,TGI,[1],> 100000 nM
same,CC50,[1]; [35],> 100000 nM
same,growth at 10 µM,[2],52.3%
same,GI50,[3],349 nM
same,IC50,[3],350 nM
same,TGI,[3],3420 nM
same,CC50,[3]; [35],> 100000 nM
same,GI50,[4],638 nM
same,TGI,[4],> 100000 nM
same,CC50,[4]; [35],> 100000 nM
same,GI50,[5],534 nM
same,LC50 (concentration killing 50% of cells),[5],> 100000 nM
same,TGI,[5],> 100000 nM
same,growth at 10 µM,[6],-57.9%
same,GI50,[7],421 nM
same,TGI,[7],> 100000 nM
same,CC50,[7]; [35],> 100000 nM
same,growth at 10 µM,[8],32.3%
same,growth at 10 µM,[9],-3.82%
same,GI50,[10],3860 nM
same,LC50,[10],> 100000 nM
same,TGI,[10],> 100000 nM
same,GI50,[11],522 nM
same,LC50 (concentration killing 50% of cells),[11],68400 nM
same,TGI,[11],3230 nM
same,growth at 10 µM,[12],29.8%
same,GI50,[13],567 nM
same,LC50,[13],> 100000 nM
same,TGI,[13],> 100000 nM
same,growth at 10 µM,[14],42.1%
same,GI50,[15],1900 nM
same,TGI,[15],> 100000 nM
same,CC50,[15]; [35],> 100000 nM
same,GI50,[16],189 nM
same,IC50,[16],190 nM
same,TGI,[16],551 nM
same,CC50,[16]; [35],12300 nM
same,growth at 10 µM,[17],5.8%
same,GI50,[18],1170 nM
same,LC50,[18],> 100000 nM
same,TGI,[18],13700 nM
same,growth at 10 µM,[19],19.6%
same,GI50,[20],1520 nM
same,TGI,[20],> 100000 nM
same,CC50,[20]; [35],> 100000 nM
same,growth at 10 µM,[21],11.6%
same,GI50,[22],8340 nM
same,TGI,[22],> 100000 nM
same,CC50,[22]; [35],> 100000 nM
same,growth at 10 µM,[23],32.5%
same,growth at 10 µM,[24],50%
same,growth at 10 µM,[25],46.5%
same,growth at 10 µM,[26],-1.34%
same,growth at 10 µM,[27],2.59%
same,GI50,[28],337 nM
same,IC50,[28],340 nM
same,TGI,[28],2260 nM
same,CC50,[28]; [35],> 100000 nM
same,growth at 10 µM,[29],21.8%
same,growth at 10 µM,[30],21.3%
same,GI50,[31],2320 nM
same,TGI,[31],22400 nM
same,CC50,[31]; [35],> 100000 nM
same,GI50,[32],479 nM
same,TGI,[32],> 100000 nM
same,CC50,[32]; [35],> 100000 nM
same,growth at 10 µM,[33],-23.2%
same,GI50,[34],654 nM
same,LC50,[34],> 100000 nM
same,TGI,[34],> 100000 nM
